What all share (assay type): biochemical
Holding throughout (conditions): 5 min 37° C., then iodoacetic acid

The target in test [1] is T1, F V (Homo sapiens, UniProt P12259).
T1 construct: from tissue; host or cells: human citrated blood plasma
Put plainly: Coagulation factor V activity in plasma after reducing agent + iodoacetic acid. The procedure:
(§1) Human blood with anti-coagulating agent (9 parts blood+1 part 3.8% trisodium citrate) is centrifuged and the following tests with plasma were carried out:
(§2) The plasma is divided into 8 ml portions, which are preheated at 37° C. for 5 min. DTT is added in different concentrations, see table 1 below, and is incubated for 5 min. at 37° C. Then iodoacetic acid, 3 mol per mol DTT, is added, and incubation takes place for 15 min. at 37° C. The plasma samples are distributed in portions of about 0.2 ml and are immediately frozen at -70° C. Testing of different coagulation factors is made in known manner.
(§3) The plasma is divided into 8 ml portions, which are preheated at 37° C. for 5 min. DTE is added in different concentrations (see table 2), and is incubated for 5 minutes at 37° C. Then, iodoacetic acid (3 mol per mol DTE) is added and incubation is carried out for 15 minutes at 37° C. The plasma samples are distributed in portions of about 0.2 ml and are immediately frozen at -70° C. Testing of different coagulation factors is made in a manner known per se.
(§4) The plasma is divided into 8 ml portions, which are preheated at 37° C. for 5 minutes. Lipoic acid is added in different concentrations (see table 3), and is incubated for 5 minutes at 37° C. Then, iodoacetic acid (3 mol per mol lipoic acid) is added and incubation is carried out for 15 minutes at 37° C. The plasma samples are distributed in portions of about 0.2 ml and are immediately frozen at -70° C. Testing of different coagulation factors is made in a manner known per se.
(§5) The plasma is divided into 8 ml portions, which are preheated at 37° C. for 5 minutes. Mercaptoethanol is added in different concentrations (see table 4), and is incubated for 5 minutes at 37° C. Then, iodoacetic acid (3 mol per mol mercaptoethanol) is added and incubation is carried out for 15 minutes at 37° C. The plasma samples are distributed in portions of about 0.2 ml and are immediately frozen at -70° C. Testing of different coagulation factors is made in a manner known per se.
(§6) The plasma is divided into 8 ml portions, which are preheated at 37° C. for 5 minutes. Potassium borohydride is added in different concentrations (see table 5, and is incubated for 5 minutes at 37° C. Then, iodoacetic acid (3 mol per mol potassium borohydride) is added and incubation is carried out for 15 minutes at 37° C. The plasma samples are distributed in portions of about 0.2 ml and are immediately frozen at -70° C. Testing of different coagulation factors is made in a manner known per se.

Test [2] has as its target T2, F IX (Homo sapiens, UniProt P00740).
T2 construct: from tissue; host or cells: human citrated blood plasma
In words: Coagulation factor IX activity in plasma after reducing agent + iodoacetic acid. Here is the method: as §1, §2, §3, §4, §5, §6

The target in test [3] is T3, F X (Homo sapiens, UniProt P00742).
T3 construct: from tissue; host or cells: human citrated blood plasma
Put plainly: Coagulation factor X activity in plasma after reducing agent + iodoacetic acid. The procedure:
as §1, §2, §3, §4, §5, §6

The target in test [4] is T4, F II (Homo sapiens, UniProt P00734).
T4 construct: from tissue; host or cells: human citrated blood plasma
Put plainly: Coagulation factor II activity in plasma after reducing agent + iodoacetic acid. Here is the method:
as §1, §2, §3, §4, §5, §6

Test [5] deals with T5, F XI (Homo sapiens, UniProt P03951).
T5 construct: from tissue; host or cells: human citrated blood plasma
Put plainly: Coagulation factor XI activity in plasma after reducing agent + iodoacetic acid. The procedure: as §1, §2, §3, §4, §5, §6

[6] abbreviates: 0.1 mg reducing agent/ml plasma (sample C).
Where [7] appears, read: human, 0.1 mg reducing agent/ml plasma (sample C).
[8] abbreviates: human, 0.6 mg reducing agent/ml plasma.
[9] abbreviates: human, Table 1 sample D, 0.1 mg DTT/ml plasma.
Where [10] appears, read: plasma + 0.14 mg reducing agent.
Setting [11] is: plasma + 0.28 mg reducing agent.

T3 sequence (P00742 235-488 limits assumed): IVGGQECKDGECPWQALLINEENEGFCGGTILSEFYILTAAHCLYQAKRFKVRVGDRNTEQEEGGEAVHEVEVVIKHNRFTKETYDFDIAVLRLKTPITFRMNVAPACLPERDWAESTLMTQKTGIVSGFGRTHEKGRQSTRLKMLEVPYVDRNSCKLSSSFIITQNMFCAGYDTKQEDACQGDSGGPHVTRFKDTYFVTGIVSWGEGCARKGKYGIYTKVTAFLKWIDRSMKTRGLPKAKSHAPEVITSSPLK
T3 sequence (P00742 41-179 limits assumed): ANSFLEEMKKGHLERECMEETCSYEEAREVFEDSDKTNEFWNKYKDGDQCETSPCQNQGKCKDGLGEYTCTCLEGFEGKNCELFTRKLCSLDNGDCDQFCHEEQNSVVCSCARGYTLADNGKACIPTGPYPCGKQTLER
T1 sequence (P12259 29-2224): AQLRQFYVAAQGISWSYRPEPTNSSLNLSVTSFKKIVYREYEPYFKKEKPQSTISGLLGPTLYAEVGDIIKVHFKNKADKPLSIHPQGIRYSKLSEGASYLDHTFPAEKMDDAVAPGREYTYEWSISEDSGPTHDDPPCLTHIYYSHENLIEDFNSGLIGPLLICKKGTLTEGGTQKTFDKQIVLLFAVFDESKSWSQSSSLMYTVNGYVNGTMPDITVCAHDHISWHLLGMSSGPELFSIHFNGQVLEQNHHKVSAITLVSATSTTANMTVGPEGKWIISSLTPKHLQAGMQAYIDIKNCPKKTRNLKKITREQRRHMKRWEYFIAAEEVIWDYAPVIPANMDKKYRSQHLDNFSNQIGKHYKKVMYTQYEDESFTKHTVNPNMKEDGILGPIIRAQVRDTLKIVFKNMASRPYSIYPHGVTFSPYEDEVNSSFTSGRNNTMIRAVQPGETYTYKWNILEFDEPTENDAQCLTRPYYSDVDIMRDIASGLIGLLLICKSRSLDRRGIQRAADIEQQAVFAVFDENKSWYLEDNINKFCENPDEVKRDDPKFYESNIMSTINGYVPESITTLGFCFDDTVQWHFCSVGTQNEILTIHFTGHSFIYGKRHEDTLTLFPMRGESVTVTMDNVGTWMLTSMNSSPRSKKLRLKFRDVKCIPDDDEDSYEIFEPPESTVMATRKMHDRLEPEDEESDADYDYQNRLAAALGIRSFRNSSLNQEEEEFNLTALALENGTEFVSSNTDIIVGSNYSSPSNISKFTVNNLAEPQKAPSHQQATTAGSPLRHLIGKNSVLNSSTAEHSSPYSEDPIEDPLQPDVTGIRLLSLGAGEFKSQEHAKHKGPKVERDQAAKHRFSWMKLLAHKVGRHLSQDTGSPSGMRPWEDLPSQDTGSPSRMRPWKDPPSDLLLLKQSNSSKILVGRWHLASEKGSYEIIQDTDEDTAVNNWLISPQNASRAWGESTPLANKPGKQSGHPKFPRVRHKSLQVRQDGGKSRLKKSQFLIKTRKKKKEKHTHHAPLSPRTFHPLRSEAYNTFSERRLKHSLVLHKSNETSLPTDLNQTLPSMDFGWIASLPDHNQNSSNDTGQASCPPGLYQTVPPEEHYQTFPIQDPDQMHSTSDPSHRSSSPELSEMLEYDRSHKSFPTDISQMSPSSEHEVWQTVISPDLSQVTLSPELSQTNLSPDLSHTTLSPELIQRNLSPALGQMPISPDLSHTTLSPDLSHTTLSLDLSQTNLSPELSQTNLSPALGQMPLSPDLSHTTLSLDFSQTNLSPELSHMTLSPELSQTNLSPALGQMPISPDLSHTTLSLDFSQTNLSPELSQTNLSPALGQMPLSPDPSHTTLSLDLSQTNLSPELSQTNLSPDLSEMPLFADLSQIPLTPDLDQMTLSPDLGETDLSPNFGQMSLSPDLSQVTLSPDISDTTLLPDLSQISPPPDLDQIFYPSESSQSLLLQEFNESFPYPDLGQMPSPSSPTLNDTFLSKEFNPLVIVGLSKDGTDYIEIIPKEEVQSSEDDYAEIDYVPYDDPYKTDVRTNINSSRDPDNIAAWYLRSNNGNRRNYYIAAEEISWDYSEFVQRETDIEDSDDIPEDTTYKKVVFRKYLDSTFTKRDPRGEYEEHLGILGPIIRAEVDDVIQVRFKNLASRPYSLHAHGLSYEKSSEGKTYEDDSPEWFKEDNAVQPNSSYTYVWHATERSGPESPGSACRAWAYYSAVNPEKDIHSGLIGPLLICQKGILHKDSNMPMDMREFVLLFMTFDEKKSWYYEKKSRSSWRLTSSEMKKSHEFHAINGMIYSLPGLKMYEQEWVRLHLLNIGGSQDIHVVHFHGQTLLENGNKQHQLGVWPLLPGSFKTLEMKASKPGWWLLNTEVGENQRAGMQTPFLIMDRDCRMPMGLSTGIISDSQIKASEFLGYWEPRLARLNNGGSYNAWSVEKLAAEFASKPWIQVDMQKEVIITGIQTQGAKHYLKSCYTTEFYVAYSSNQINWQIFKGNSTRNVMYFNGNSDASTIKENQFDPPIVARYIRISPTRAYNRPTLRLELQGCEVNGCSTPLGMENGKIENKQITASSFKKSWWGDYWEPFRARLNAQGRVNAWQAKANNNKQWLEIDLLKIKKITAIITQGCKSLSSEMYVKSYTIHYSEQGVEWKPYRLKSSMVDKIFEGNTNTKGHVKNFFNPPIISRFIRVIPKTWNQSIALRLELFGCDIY
T2 sequence (P00740 47-461): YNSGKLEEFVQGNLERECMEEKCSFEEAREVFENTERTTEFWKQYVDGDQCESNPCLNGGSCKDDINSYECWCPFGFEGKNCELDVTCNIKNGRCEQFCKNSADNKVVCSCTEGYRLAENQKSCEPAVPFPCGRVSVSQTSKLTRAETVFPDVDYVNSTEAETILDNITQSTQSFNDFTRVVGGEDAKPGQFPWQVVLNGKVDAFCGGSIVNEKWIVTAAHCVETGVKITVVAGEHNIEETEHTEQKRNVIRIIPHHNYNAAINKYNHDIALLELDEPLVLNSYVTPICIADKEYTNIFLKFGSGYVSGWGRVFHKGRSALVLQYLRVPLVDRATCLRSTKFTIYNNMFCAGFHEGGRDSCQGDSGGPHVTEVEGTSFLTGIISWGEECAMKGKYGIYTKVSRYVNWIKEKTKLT
T5 sequence (P03951 19-625): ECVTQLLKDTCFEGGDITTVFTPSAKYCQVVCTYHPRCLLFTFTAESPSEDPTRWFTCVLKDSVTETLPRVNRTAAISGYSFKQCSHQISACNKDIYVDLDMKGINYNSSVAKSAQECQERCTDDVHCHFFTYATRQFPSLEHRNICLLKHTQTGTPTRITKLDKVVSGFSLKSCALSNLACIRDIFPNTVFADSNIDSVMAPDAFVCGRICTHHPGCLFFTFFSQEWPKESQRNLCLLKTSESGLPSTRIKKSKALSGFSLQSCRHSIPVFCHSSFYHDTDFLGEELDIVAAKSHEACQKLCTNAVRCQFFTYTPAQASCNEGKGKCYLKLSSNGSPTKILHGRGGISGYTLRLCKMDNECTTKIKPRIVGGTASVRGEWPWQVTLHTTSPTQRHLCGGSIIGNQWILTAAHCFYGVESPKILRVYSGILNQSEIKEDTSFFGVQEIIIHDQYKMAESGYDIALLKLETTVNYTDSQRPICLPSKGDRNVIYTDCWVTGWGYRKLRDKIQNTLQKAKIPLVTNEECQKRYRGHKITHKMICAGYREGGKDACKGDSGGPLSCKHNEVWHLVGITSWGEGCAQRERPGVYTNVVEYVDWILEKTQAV

Consider `O[C@H](CS)[C@H](O)CS` [DTT, dithiothreitol], for which the “Coagulation factor F V” value was 94 % of control in test [1] (setting [6]); 90 % of control in test [1] (0.6 mg reducing agent/ml plasma); 90 % of control in test [1] (Table 1 sample D, 0.1 mg DTT/ml plasma); 85 % of control in test [1] (plasma + 0.4 mg reducing agent). In addition, the activity at 100 µg/mL amounted to 129% in test [2] (setting [7]); 16% in test [2] (setting [9]); 59% in test [3] (setting [7]); 6% in test [3] (setting [9]); 101% in test [4] (setting [7]); 69% in test [4] (setting [9]). The values for the activity at 100 µg/mL in test [5] (setting [7]) and in test [5] (setting [9]) were 47% and 9%, respectively. Further, the activity at 600 µg/mL worked out at 0% in test [2] (setting [8]), 0% in test [3] (setting [8]), 33% in test [4] (setting [8]) and 0% in test [5] (setting [8]). The “Coagulation factor F IX” value in test [2] (plasma + 0.4 mg reducing agent) is listed as 8 % of control. The “Coagulation factor F X” value in test [3] (plasma + 0.4 mg reducing agent) is listed as 0 % of control. Also, the “Coagulation factor F II” value in test [4] (plasma + 0.4 mg reducing agent) is 41 % of control. Moreover, the “Coagulation factor F XI” value in test [5] (plasma + 0.4 mg reducing agent) is 0 % of control.

As for `[BH4-].[K+]` [KBH4, potassium borohydride], the “Coagulation factor F V” value was 74 % of control in test [1] (setting [10]) and 93 % of control in test [1] (setting [11]). Also, the “Coagulation factor F IX” value is on record as 77 % of control in test [2] (setting [10]) and 71 % of control in test [2] (setting [11]). For the same compound, the “Coagulation factor F X” value in test [3] (setting [10]) is recorded as 86 % of control; in test [3] (setting [11]), 68 % of control. For the same compound, the “Coagulation factor F II” value is on record as 92 % of control in test [4] (setting [10]) and 96 % of control in test [4] (setting [11]). For the same compound, the figures for the “Coagulation factor F XI” value in test [5] (setting [10]) and in test [5] (setting [11]) were 94 % of control and 107 % of control, respectively.

Take `O=C(O)CCCCC1CCSS1` (stereo not shown) [lipoic acid]: the “Coagulation factor F V” value was 100 % of control in test [1] (setting [6]), 91 % of control in test [1] (plasma + 0.2 mg reducing agent) and 215 % of control in test [1] (plasma + 0.4 mg reducing agent). Besides, the activity at 100 µg/mL in test [2] (setting [7]) turned out to be 58%; in test [3] (setting [7]), 40%; in test [4] (setting [7]), 100%; in test [5] (setting [7]), 67%. Also, the results for the “Coagulation factor F IX” value in test [2] (plasma + 0.2 mg reducing agent) and in test [2] (plasma + 0.4 mg reducing agent) were 52 % of control and 58 % of control, respectively. Moreover, the “Coagulation factor F X” value in test [3] (plasma + 0.2 mg reducing agent) was 26 % of control; in test [3] (plasma + 0.4 mg reducing agent) it was 32 % of control. Also, the “Coagulation factor F II” value in test [4] (plasma + 0.2 mg reducing agent) and in test [4] (plasma + 0.4 mg reducing agent) was 103 % of control in each case. For the same compound, the entries for the “Coagulation factor F XI” value in test [5] (plasma + 0.2 mg reducing agent) and in test [5] (plasma + 0.4 mg reducing agent) were 32 % of control and 39 % of control, respectively.

On to `O[C@H](CS)[C@@H](O)CS` [DTE, dithioerythritol], for which the “Coagulation factor F V” value in test [1] (setting [6]) is given as 99 % of control; in test [1] (plasma + 0.2 mg reducing agent) it was 99 % of control; in test [1] (plasma + 0.4 mg reducing agent), 90 % of control. The activity at 100 µg/mL in test [2] (setting [7]) amounted to 61%; in test [3] (setting [7]), 56%; in test [4] (setting [7]), 90%; in test [5] (setting [7]) it was 66%. Besides, the entries for the “Coagulation factor F IX” value in test [2] (plasma + 0.2 mg reducing agent) and in test [2] (plasma + 0.4 mg reducing agent) were 28 % of control and 19 % of control, respectively. The results for the “Coagulation factor F X” value in test [3] (plasma + 0.2 mg reducing agent) and in test [3] (plasma + 0.4 mg reducing agent) were 11 % of control and 2 % of control, respectively. In addition, the entries for the “Coagulation factor F II” value in test [4] (plasma + 0.2 mg reducing agent) and in test [4] (plasma + 0.4 mg reducing agent) were 66 % of control and 35 % of control, respectively. The “Coagulation factor F XI” value in test [5] (plasma + 0.2 mg reducing agent) is on record as 3 % of control; in test [5] (plasma + 0.4 mg reducing agent), 0 % of control.

With `OCCS` [mercaptoethanol], the figures for the “Coagulation factor F V” value in test [1] (plasma + 0.2 mg reducing agent) and in test [1] (plasma + 0.4 mg reducing agent) were 61 % of control and 84 % of control, respectively. The “Coagulation factor F IX” value in test [2] (plasma + 0.2 mg reducing agent) is given as 33 % of control; in test [2] (plasma + 0.4 mg reducing agent), 35 % of control. Besides, the “Coagulation factor F X” value in test [3] (plasma + 0.2 mg reducing agent) is 75 % of control; in test [3] (plasma + 0.4 mg reducing agent), 37 % of control. The “Coagulation factor F II” value in test [4] (plasma + 0.2 mg reducing agent) is on record as 89 % of control; in test [4] (plasma + 0.4 mg reducing agent) it was 74 % of control. Also, the “Coagulation factor F XI” value in test [5] (plasma + 0.2 mg reducing agent) is 74 % of control; in test [5] (plasma + 0.4 mg reducing agent), 62 % of control.

These data come from patent US4229435A, “Preparation of blood fraction” (priority 1978, dated 1980).
